Assay: Identification of metabolites of PG in vivo (plasma, bile, urine, feces)
Parameters: species or system rat
Conditions: rats
Method: Nine Sprague–Dawley (SD) male rats (200 ± 20 g) were purchased from Beijing Vital River Laboratory Animal Technology Co., Ltd. (license number: SCXK (Beijing) 2016-0006).
The plasma samples were the same as in the pharmacokinetic experiment; PGI (9 mg kg^−1) was injected into the tail vein of three rats to collect the bile samples for 0–6 h, and saline (9 mg kg^−1) was injected into the tail vein of three rats to collect the normal bile samples. PGI (9 mg kg^−1) was injected into the tail vein of three rats to collect urine (0–4 h) samples and feces (0–6 h) samples after collecting the blank urine and feces samples. All samples were stored at −80℃ for further analysis.
Plasma samples: 40 μl of plasma samples at different time points were taken and mixed together in a 2 ml centrifuge tube; 1,280 μl of ice acetonitrile was added. The mixture was vortexed for 3 min and centrifuged at 13,200 × g under 4℃ for 10 min. The supernatant was transferred to another centrifuge tube and dried with nitrogen, re-dissolved with 60 μl of 80% methanol-H2O (v/v). For further LC-MS analysis, 3 μl of the supernatant was injected.
Bile samples: 100 μl of bile sample was taken using a 0.22 μm filter, the mixture was vortexed for 3 min, and centrifuged at 13200 × g under 4℃ for 10 min. For further LC-MS analysis, 3 μl of the supernatant was injected.
Fecal samples: 100 mg of the sample was weighed into a 1.5 ml centrifuge tube, 400 μl of ice acetonitrile was added, and the mixture was vortexed for 3 min and centrifuged at 13,200 × g under 4℃ for 10 min. For further LC-MS analysis, 3 μl of the supernatant was injected.
Urine sample: 600 μl of urine sample was taken out, and 2,400 μl of ice acetonitrile was added. The mixture was vortexed for 3 min and centrifuged at 13,200 × g under 4℃ for 10 min. The supernatant was transferred to another centrifuge tube and dried with nitrogen, re-dissolved with 60 μl of 80% methanol-H2O (v/v). For further LC-MS analysis, 3 μl of the supernatant was injected.
An ultrahigh-performance liquid chromatography-mass spectrometer (Waters, United States) was performed for separation and detection. A Waters ACQUITY UPLC HSS T3 column (2.1 × 100 mm, 1.8 μm) was employed at 30℃ with a flow rate of 0.3 ml min^−1. The mobile phase consisted of acetonitrile (B) and water containing 0.1% FA ([…]). The following linear gradient was used: 0–0.5 min: 5–7% B; 0.5–2.5 min: 7–8.8% B; 2.5–5.5 min: 8.8–16.9% B; 5.5–14 min: 16.9–24.7% B; 14–23 min: 24.7–52% B; and 23–30 min: 52–95% B.
DDA was performed using the Q Exactive™ hybrid quadrupole–Orbitrap mass spectrometer both in negative and positive mode. […]

For `OC[C@H]1O[C@@H](Oc2cc(/C=C/c3cc(O)cc(O)c3)ccc2O)[C@H](O)[C@@H](O)[C@@H]1O` [PG, Piceatannol-3′-O-β-D-glucopyranoside], the “metabolites in fecal samples” value was “No metabolites were detected”, the “metabolic route of PG in vivo” value (PGI 9 mg kg−1 tail vein) was “mainly undergoes a phase II binding reaction mediated by UGT and SULT” and the “number of metabolites identified in bile” value (PGI 9 mg kg−1 tail vein, bile 0–6 h, all phase II) was “five”. The “number of metabolites identified in plasma” value (PGI 9 mg kg−1 tail vein, all phase II metabolites) was “four”.
